Measurements reported in patent US11771765B2, “Light augmented treatment method” (The Procter & Gamble Company, priority 2019, dated 2023).
Read-outs that look alike come from different tables or passages of the source.

Key:
protoporphyrin IX (PPIX) = assay: Protoporphyrin IX levels in treated M. furfur cells by HPLC; assay type: cell-based
M. furfur = assay: Dependence of photosensitivity on wavelength, M. furfur (Table 5); assay type: cell-based, Malassezia furfur; parameters: overnight growth in mDixon: unit not given here; details: for overnight growth in mDixon: N=1
Procedure: Dependence of photosensitivity on wavelength. A fresh overnight culture is diluted 100 fold and grown for three hours to an OD of 0.16. M. furfur is treated at the indicated dose and cultured another three hours. Cells are harvested by centrifugation, suspended in PBS, and exposed to an LED array at the indicated wavelength. The illumination is for ten minutes with 1200 foot candles. The cultures are then allowed to grow overnight in mDixon. N=1.

S. cerevisiae BY4741 = details: for 17 h growth: YNB Ethanol
Procedure: Cells are grown in the medium of choice, generally one requiring respiration. In the case of Malassezia furfur that medium is modified Dixon medium (mDixon) (per one liter: 36 g malt extract (Difco 0186-17), 20 g ox bile (provided by American Laboratories, Inc., of Omaha, Nebraska, as Lot No. 03130792), 10 ml Tween 40 (Aldrich 27435-6), 6 g peptone (Difco 0118-17), 2 ml oleic acid (Baker 2114-01), and 2 ml glycerol (Sigma G-7893)). [Candida and YPG, Saccharomyces and YNB (without amino acids) to which we added 40 μg/ml each of uracil, histidine, and methionine plus 130 μg/ml leucine and 2% ethanol and 0.1% yeast extract.] Conventional medium may also be used for other microbials. Starting cultures are prepared by diluting a fresh overnight culture that is out of log phase 1:100 and incubating with shaking at 31° C. in a 250 mL shake flask (Corning, 431144) with 20 mL medium shaking at 200-250 rpm for about 3 hours to ensure the cells had returned to growth phase. At this time, the test agent is added to the flasks to afford the final concentration for testing. The cells are cultured for 1 hour with the test agent. At this time, the cells typically have an OD at 600 nm in the range of 0.25 to 0.8. Generally, we isolate 2.5 OD*mLs of cells calculated as desired OD*mLs divided by the OD600 of the cells. These media samples are centrifuged (Beckman Coulter Allegra™ 6KR centrifuge) 10 minutes at RT at 3200 rpm to pellet the cells. The supernatant is poured off and the tubes are set upside down on a folded paper towel to drain off the remains of media. Two and one half milliliters of PBS (Gibco, pH 7.4, without magnesium chloride or calcium chloride, 14190-144) is added and the cells resuspended. One mL of cells is transferred to each of two 12-well plates (Falcon, polystyrene, 353043). One plate is stored in the dark and the other is exposed to the light with the plate cover on the plate. […] When the light exposure is completed, the samples are mixed by slowly vortexing or pipetting and 0.65 mL of each sample is transferred to 13 mL of medium for overnight growth at 31° C. with shaking. The following morning, typically 18 hours later, the ODs at 600 nm are determined. Successful materials are those that show at least a 50% reduction in growth after light exposure relative to a dark sample.
S. cerevisiae is exposed to light from LED flashlights of the indicated wavelength as well as a painter's light/worklight, commonly found at a hardware store, which provides a broad spectrum of wavelengths of light. Yeast has been pretreated as indicated, prior to light exposure.

C. albicans cells = assay: Candida albicans spot plating after Piroctone Olamine and 409 nm light (Table 4); assay type: cell-based; parameters: key to spot plated growth (score): +: a continuous fungal lawn; +/−: a lawn with breaks allowing the agar to show; −: 0 to 5 colonies
Procedure: Potentiation of Piroctone Olamine by light exposure is also observed in Candida albicans. […] Cells are then diluted as indicated in the left column, and spot plated. Resulting growth is then scored, as explained above.

[1] = LED arrays of 520 (green) and 595 (yellow) light

SMILES: [O-]n1ccccc1=S.[O-]n1ccccc1=S.[Zn+2] [ZPT, zinc salt of 1-hydroxy-2-pyridinethione]
- Total PPIX (protoporphyrin IX (PPIX); ZPT 2.5 ppm): 0.37 ng
- Total PPIX (protoporphyrin IX (PPIX); ZPT 5 ppm): 0.47 ng
- Total PPIX (protoporphyrin IX (PPIX); ZPT 10 ppm): 0.27 ng
- overnight growth in mDixon (M. furfur; 6 ppm 3 h, 409 nm LED array, 10 min, 1200 foot candles): 0.354
- overnight growth in mDixon (M. furfur; 6 ppm 3 h, 520 nm LED array, 10 min, 1200 foot candles): 3.37
- overnight growth in mDixon (M. furfur; 6 ppm 3 h, 595 nm LED array, 10 min, 1200 foot candles): 3.75
- overnight growth in mDixon (M. furfur; 6 ppm 3 h, Dark): 3.31
- photosensitivity (M. furfur; LED array of 409 nm light): observed photosensitivity
- photosensitivity (M. furfur; [1]): not with LED arrays of 520 (green) and 595 (yellow) light
- 17 h growth (S. cerevisiae BY4741; 0.8 ppm, 395 nm light): 0.7205
- 17 h growth (S. cerevisiae BY4741; 0.8 ppm, 520 nm light): 1.418
- 17 h growth (S. cerevisiae BY4741; 0.8 ppm, 580 nm light): 1.332
- 17 h growth (S. cerevisiae BY4741; 0.8 ppm, Broad Spectrum light): 0.525
- 17 h growth (S. cerevisiae BY4741; 0.8 ppm, Dark): 1.5185
- 17 h growth (S. cerevisiae BY4741; 1.6 ppm, 395 nm light): 0.3435
- 17 h growth (S. cerevisiae BY4741; 1.6 ppm, 520 nm light): 1.3615
- 17 h growth (S. cerevisiae BY4741; 1.6 ppm, 580 nm light): 0.9245
- 17 h growth (S. cerevisiae BY4741; 1.6 ppm, Broad Spectrum light): 0.303
- 17 h growth (S. cerevisiae BY4741; 1.6 ppm, Dark): 1.525
- sensitivity of treated yeast to light (S. cerevisiae BY4741; ZPT-treated, LED flashlights 395, 520, 580 nm): sensitive to a 395 nm flashlight, but not two other wavelengths of light

SMILES: Cc1cc(CC(C)CC(C)(C)C)n(O)c(=O)c1.NCCO (centres unmarked) [Piroctone Olamine, 1-Hydroxy-4-methyl-6-(2,4,4-trimethylpentyl)-2-pyridone monoethanolamine salt]
- Total PPIX (protoporphyrin IX (PPIX); Piroctone Olamine 6 ppm): 2.6 ng
- Total PPIX (protoporphyrin IX (PPIX); Piroctone Olamine 8 ppm): 13.9 ng
- Total PPIX (protoporphyrin IX (PPIX); Piroctone Olamine 16 ppm): 20.7 ng
- Total PPIX (protoporphyrin IX (PPIX); Piroctone Olamine 32 ppm): 16.5 ng
- overnight growth in mDixon (M. furfur; 8 ppm 3 h, 409 nm LED array, 10 min, 1200 foot candles): 0.891
- overnight growth in mDixon (M. furfur; 8 ppm 3 h, 520 nm LED array, 10 min, 1200 foot candles): 4.34
- overnight growth in mDixon (M. furfur; 8 ppm 3 h, 595 nm LED array, 10 min, 1200 foot candles): 5.59
- overnight growth in mDixon (M. furfur; 8 ppm 3 h, Dark): 4.36
- overnight growth in mDixon (M. furfur; 12 ppm 3 h, 409 nm LED array, 10 min, 1200 foot candles): 0.068
- overnight growth in mDixon (M. furfur; 12 ppm 3 h, 520 nm LED array, 10 min, 1200 foot candles): 3.76
- overnight growth in mDixon (M. furfur; 12 ppm 3 h, 595 nm LED array, 10 min, 1200 foot candles): 4.22
- overnight growth in mDixon (M. furfur; 12 ppm 3 h, Dark): 2.79
- photosensitivity (M. furfur; LED array of 409 nm light): observed photosensitivity
- photosensitivity (M. furfur; [1]): not with LED arrays of 520 (green) and 595 (yellow) light
- spot plated growth (score) (C. albicans cells; 6 ppm, dilution 1:2, 15 minute 409 nm light): +
- spot plated growth (score) (C. albicans cells; 6 ppm, dilution 1:2, Dark): +
- spot plated growth (score) (C. albicans cells; 6 ppm, dilution 1:20, 15 minute 409 nm light): +
- spot plated growth (score) (C. albicans cells; 6 ppm, dilution 1:20, Dark): +
- spot plated growth (score) (C. albicans cells; 6 ppm, dilution 1:200, 15 minute 409 nm light): +/−
- spot plated growth (score) (C. albicans cells; 6 ppm, dilution 1:200, Dark): +/−
- spot plated growth (score) (C. albicans cells; 6 ppm, dilution 1:2000, 15 minute 409 nm light): +/−
- spot plated growth (score) (C. albicans cells; 6 ppm, dilution 1:2000, Dark): +/−
- growth with the addition of light (C. albicans cells; 12 and 24 ppm dose, 409 nm light 15 min): complete inhibition of growth
- spot plated growth (score) (C. albicans cells; 12 ppm, dilution 1:2, 15 minute 409 nm light): +
- spot plated growth (score) (C. albicans cells; 12 ppm, dilution 1:2, Dark): +
- spot plated growth (score) (C. albicans cells; 12 ppm, dilution 1:20, 15 minute 409 nm light): +/−
- spot plated growth (score) (C. albicans cells; 12 ppm, dilution 1:20, Dark): +
- spot plated growth (score) (C. albicans cells; 12 ppm, dilution 1:200, 15 minute 409 nm light): +/−
- spot plated growth (score) (C. albicans cells; 12 ppm, dilution 1:200, Dark): +/−
- spot plated growth (score) (C. albicans cells; 12 ppm, dilution 1:2000, 15 minute 409 nm light): − (0 to 5 colonies)
- spot plated growth (score) (C. albicans cells; 12 ppm, dilution 1:2000, Dark): +/−
- spot plated growth (score) (C. albicans cells; 24 ppm, dilution 1:2, 15 minute 409 nm light): +
- spot plated growth (score) (C. albicans cells; 24 ppm, dilution 1:2, Dark): +
- spot plated growth (score) (C. albicans cells; 24 ppm, dilution 1:20, 15 minute 409 nm light): +/−
- spot plated growth (score) (C. albicans cells; 24 ppm, dilution 1:20, Dark): +
- spot plated growth (score) (C. albicans cells; 24 ppm, dilution 1:200, 15 minute 409 nm light): +/−
- spot plated growth (score) (C. albicans cells; 24 ppm, dilution 1:200, Dark): +/−
- spot plated growth (score) (C. albicans cells; 24 ppm, dilution 1:2000, 15 minute 409 nm light): − (0 to 5 colonies)
- spot plated growth (score) (C. albicans cells; 24 ppm, dilution 1:2000, Dark): +/−
